Measurements from publication PMC10288926 (Journal of Enzyme Inhibition and Medicinal Chemistry, 2023).
Read-outs that look alike come from different tables or passages of the source.

Tests used:
c-MET = c-MET (Homo sapiens, UniProt P08581); test: HTRF kinase inhibitory assay, c-MET; assay type: biochemical; details: for c-MET Inhibition (1μM): kinase inhibition % at 1 μM; for inhibition at 1 µM: read-out: c-MET Inhibition (1μM)
[1] = test system: NCI-H3122 cell line harbouring EML4-ALK fusion; test: Antiproliferative MTT assay, NCI-H3122; assay type: cell-based, human; details: read-out: Cellular IC50 (μM) NCI-H3122
Ba/F3 CD74-ROS1^WT cell = Ba/F3 CD74-ROS1^WT cell (Homo sapiens, UniProt P04233+P08922); test: Antiproliferative CCK-8 assay, Ba/F3 CD74-ROS1^WT; assay type: cell-based; details: 72 h exposure, IC50, at least three independent experiments; for IC50: read-out: Ba/F3 cellular activities (nM) CD74-ROS1^WT
[2] = target: Ba/F3 EML4-ALK^L1196M cell (Homo sapiens, UniProt Q9HC35+Q9UM73, L1196M); assay type: cell-based; details: read-out: Ba/F3 cellular activities (nM) EML4-ALK^L1196M; 72 h exposure, IC50, at least three independent experiments
ALK^G1202R = ALK^G1202R (Homo sapiens, UniProt Q9UM73, G1202R); test: HTRF KinEASE-TK kinase inhibitory assay, ALK^G1202R; assay type: biochemical
ALK^WT = ALK^WT (Homo sapiens, UniProt Q9UM73); test: HTRF KinEASE-TK kinase inhibitory assay, ALK wild type; assay type: biochemical; details: for ALK Inhibition (1μM): kinase inhibition % at 1 μM; for inhibition at 1 µM: read-out: ALK Inhibition (1μM)
[3] = target: Ba/F3 CD74-ROS1^G2032R cell (Homo sapiens, UniProt P04233+P08922, G2032R); test: Antiproliferative CCK-8 assay, Ba/F3 CD74-ROS1^G2032R; assay type: cell-based; details: read-out: Ba/F3 cellular activities (nM) CD74-ROS1^G2032R; 72 h exposure, IC50, at least three independent experiments
[4] = target: Ba/F3 CD74-ROS1^L2026M cell (Homo sapiens, UniProt P04233+P08922, L2026M); test: Antiproliferative CCK-8 assay, Ba/F3 CD74-ROS1^L2026M; assay type: cell-based; details: read-out: Ba/F3 cellular activities (nM) CD74-ROS1^L2026M; 72 h exposure, IC50, at least three independent experiments
ROS1 = ROS1 (Homo sapiens, UniProt P08922); test: HTRF KinEASE-TK kinase inhibitory assay, ROS1; assay type: biochemical; details: for ROS1 Inhibition (1μM): kinase inhibition % at 1 μM; for inhibition at 1 µM: read-out: ROS1 Inhibition (1μM)
Ba/F3 EML4-ALK^WT cell = Ba/F3 EML4-ALK^WT cell (Homo sapiens, UniProt Q9HC35+Q9UM73); assay type: cell-based; details: read-out: Ba/F3 cellular activities (nM) EML4-ALK^WT; 72 h exposure, IC50, at least three independent experiments
[5] = test system: HCC-78 cell line harbouring SLC34A2-ROS1 fusion; test: Antiproliferative MTT assay, HCC-78; assay type: cell-based, human; details: read-out: Cellular IC50 (μM) HCC-78
ALK^L1196M = ALK^L1196M (Homo sapiens, UniProt Q9UM73, L1196M); test: HTRF KinEASE-TK kinase inhibitory assay, ALK^L1196M; assay type: biochemical
ROS1-G2032R = details: read-out: cellular IC50 ROS1-G2032R; cited from earlier work
[6] = test system: phosphorylation of ROS1 and ERK in CD74-ROS1^WT cell; test: Western blot of ROS1 and ERK phosphorylation, CD74-ROS1^WT Ba/F3 cells; assay type: cell-based
[7] = test system: phosphorylation of ROS1 and ERK in CD74-ROS1^L2026M cell; test: Western blot of ROS1 and ERK phosphorylation, CD74-ROS1^L2026M Ba/F3 cells; assay type: cell-based
ALK = details: read-out: enzymatic IC50 against ALK; cited from earlier work
[8] = MTT, 72 h, mean of at least three independent experiments
[9] = read-out: Enzymatic activities (nM) ALK^G1202R, IC50, average of two independent experiments
[10] = average of two independent experiments
[11] = read-out: ROS1 IC50, average of two independent experiments

inhibition at 1 µM (ROS1) [%] | IC50 ([5]; Homo sapiens, HCC78, 72 h) [µM] | Compound | IC50 [1, 8] [µM] | IC50 (Ba/F3 CD74-ROS1^WT cell) [nM] | IC50 [2] [nM] | IC50 (ALK^WT; read-out: ALK IC50) [nM] | IC50 [3] [nM] | IC50 [4] [nM] | IC50 (ROS1; [11]) [nM] | IC50 (Ba/F3 EML4-ALK^WT cell) [nM] | IC50 [5, 8] [µM] | other results
 |  | (R)-5–(6-amino-5–(1-(4'-methoxy-[1,1'-biphenyl]-2-yl)ethoxy)pyridin-3-yl)-1'-methylspiro[indoline-3,4'-piperidin]-2-one [C03] | 1.9 ± 0.1 | 18.3 ± 1.2 | 185 ± 22.2 | 56.1 | 94.4 ± 31.9 | 38.3 ± 5.9 | 11.6 | 228 ± 47.3 | 4.6 ± 0.23 | c-MET Inhibition (1μM) (c-MET): 63%; IC50 (ALK^G1202R; [9]): 492 nM; ALK Inhibition (1μM) (ALK^WT): 94%; ROS1 Inhibition (1μM) (ROS1; [10]): 101%
103 | 4.6 ± 0.8 | C[C@@H](Oc1cc(-c2cnn(C)c2)cnc1N)c1ccccc1-c1ccccc1 [B08, (R)-3–(1-([1,1'-biphenyl]-2-yl)ethoxy)-5–(1-methyl-1H-pyrazol-4-yl)pyridin-2-amine] |  | 20.9 ± 1.7 | 1810 ± 270 |  | 317 ± 92.1 | 168 ± 56.3 |  | 681 ± 151 |  | inhibition at 1 µM (c-MET): 64%; IC50 ([1]; Homo sapiens, NCI-H3122, 72 h): 5.7 ± 0.6 µM; IC50 (ALK^G1202R): 195 nM; IC50 (ALK^WT): 67.4 nM; fold more potent than compound B03, ALK IC50 (ALK^WT): ~4 fold; inhibition at 1 µM (ALK^WT): 100%; IC50 (ALK^L1196M): > 1000 nM; IC50 (ROS1): 37.4 nM; fold more potent than compound B03, ROS1 IC50 (ROS1): about 10 fold
 |  | (R)-5–(6-amino-5–(1-(4'-fluoro-[1,1'-biphenyl]-2-yl)ethoxy)pyridin-3-yl)-1'-methylspiro[indoline-3,4'-piperidin]-2-one [C02] | 2.8 ± 0.9 | 5.4 ± 1 | 148 ± 27.3 | 30.1 | 107 ± 12.6 | 21.3 ± 4.7 | 4.6 | 191 ± 51.8 | 4.4 ± 0.5 | c-MET Inhibition (1μM) (c-MET; 1 µM): 69%; Ba/F3 cellular activities (nM) CD74-ROS1^WT (Ba/F3 CD74-ROS1^WT cell): comparable to Crizotinib; IC50 (ALK^G1202R; [9]): 276 nM; ALK Inhibition (1μM) (ALK^WT; 1 µM): 98%; IC50 (ALK^L1196M; read-out: Enzymatic activities (nM) ALK^L1196M, IC50, average of two independent experiments): 643 nM; ROS1 Inhibition (1μM) (ROS1; average of two independent experiments, 1 µM): 102%
 |  | C[C@H]1Oc2cc(cnc2N)-c2c(nn(C)c2C#N)CN(C)C(=O)c2ccc(F)cc21 [Lorlatinib] |  |  |  |  |  |  |  |  |  | IC50 (ROS1-G2032R): 203 nM
101 | 4.5 ± 1.4 | C[C@@H](Oc1cc(-c2cnn(C3CCNCC3)c2)cnc1N)c1c(Cl)ccc(F)c1Cl [Crizotinib, reference compound] |  |  |  |  |  |  |  |  |  | phosphorylation of ROS1 and ERK, CD74-ROS1^WT cell [6]: attenuated phosphorylation of ROS1 and its key downstream molecule ERK in a dose-dependent manner; phosphorylation of ROS1 and ERK, CD74-ROS1^L2026M cell [7]: attenuated phosphorylation of ROS1 and its key downstream molecule ERK in a dose-dependent manner
 |  | (R)-5–(6-amino-5–(1-(3'-methyl-[1,1'-biphenyl]-2-yl)ethoxy)pyridin-3-yl)-1'-methylspiro[indoline-3,4'-piperidin]-2-one [C05] | 2.4 ± 0.1 |  |  | 79.7 |  |  | 77.3 |  | 4.6 ± 0.1 | c-MET Inhibition (1μM) (c-MET): 59%; ALK Inhibition (1μM) (ALK^WT): 101%; ROS1 Inhibition (1μM) (ROS1; [10]): 100%
 |  | C[C@@H](Oc1cc(-c2ccc3c(c2)NC(=O)C32CCN(C)CC2)cnc1N)c1c(Cl)ccc(F)c1Cl [SMU-B, reference compound] |  |  |  |  |  |  | 1.48 |  |  | IC50 (ALK): < 0.5 nM
90 | 7.1 ± 0.7 | C[C@@H](Oc1cc(-c2cccn2C)cnc1N)c1ccccc1-c1ccccc1 [B06, (R)-3–(1-([1,1'-biphenyl]-2-yl)ethoxy)-5–(1-methyl-1H-pyrrol-2-yl)pyridin-2-amine] |  |  |  |  |  |  |  |  |  | inhibition at 1 µM (c-MET): 9%; IC50 ([1]; Homo sapiens, NCI-H3122, 72 h): 24.8 ± 5 µM; inhibition at 1 µM (ALK^WT): 44%; IC50 (ROS1): 192 nM
